Data: ChEMBL document CHEMBL3400135, “Design, synthesis and biological evaluation of novel homocamptothecin analogues as potent antitumor agents” (Bioorg Med Chem, 2015)
Activity calls are given as the source filed them. The rule behind the calls is not given here.

Experiments:
[1] = Cytotoxicity against human HCT116 cells after 72 hrs by sulforhodamine B assay; format: functional, cell-based, HCT-116
[2] = target: T1, DNA topoisomerase 1 (Homo sapiens) (UniProt P11387); experiment: Inhibition of topoisomerase 1 (unknown origin) at 10 uM using supercoiled pBR322 DNA substrate by ethidium bromide staining based electrophoresis method
T1 sequence (whole entry): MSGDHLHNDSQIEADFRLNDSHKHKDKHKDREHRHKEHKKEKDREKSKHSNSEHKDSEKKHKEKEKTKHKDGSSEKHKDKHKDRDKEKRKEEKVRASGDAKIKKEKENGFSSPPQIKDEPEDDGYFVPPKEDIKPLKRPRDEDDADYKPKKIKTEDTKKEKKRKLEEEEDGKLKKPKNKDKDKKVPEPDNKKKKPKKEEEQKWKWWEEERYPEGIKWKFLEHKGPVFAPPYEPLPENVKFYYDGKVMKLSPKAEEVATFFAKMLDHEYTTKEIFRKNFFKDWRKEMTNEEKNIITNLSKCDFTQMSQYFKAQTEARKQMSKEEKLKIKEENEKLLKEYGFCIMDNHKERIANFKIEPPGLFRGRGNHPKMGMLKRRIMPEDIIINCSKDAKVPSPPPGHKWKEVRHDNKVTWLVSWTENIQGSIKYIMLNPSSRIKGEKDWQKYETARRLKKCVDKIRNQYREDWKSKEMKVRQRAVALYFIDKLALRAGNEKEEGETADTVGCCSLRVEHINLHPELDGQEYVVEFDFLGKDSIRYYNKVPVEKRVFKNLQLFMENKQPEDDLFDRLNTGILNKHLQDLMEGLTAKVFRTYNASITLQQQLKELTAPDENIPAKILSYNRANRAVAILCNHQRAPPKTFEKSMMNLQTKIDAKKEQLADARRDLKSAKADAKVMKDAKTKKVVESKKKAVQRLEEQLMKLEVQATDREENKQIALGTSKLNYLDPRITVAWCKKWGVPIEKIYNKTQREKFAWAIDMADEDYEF

HT-29 [3] = experiment: Cytotoxicity against human HT-29 cells after 72 hrs by sulforhodamine B assay; format: functional, cell-based
[4] = target: T1, DNA topoisomerase 1 (Homo sapiens); experiment: Inhibition of topoisomerase 1 (unknown origin) at 100 uM using supercoiled pBR322 DNA substrate by ethidium bromide staining based electrophoresis method
[5] = Inhibition of survivin protein expression in human HCT116 cells at 1 nM after 48 hrs by Western blot method; format: functional, cell-based; details: HCT-116
[6] = Inhibition of survivin protein expression in human HCT116 cells at 5 nM after 48 hrs by Western blot method; format: functional, cell-based; details: HCT-116
Mus musculus [7] = experiment: Toxicity in human HT-29 cells xenografted mouse assessed as body weight level at 15 mg/kg, iv dosed three times per week to the end of treatment measured on day 21 (reference value: 21.2 +/- 1.6 g); format: organism-based; set-up: dose 15 mg/kg, route intravenous; details: in vivo
Mus musculus [8] = experiment: Toxicity in human HT-29 cells xenografted mouse assessed as body weight level at 15 mg/kg, iv dosed three times per week to the end of treatment measured on day 14 (reference value: 22.7 +/- 1.5 g); format: organism-based; set-up: dose 15 mg/kg, route intravenous; details: in vivo
Mus musculus [9] = experiment: Toxicity in human HT-29 cells xenografted mouse assessed as lethal toxicity at 15 mg/kg, iv dosed three times per week to the end of treatment; format: organism-based; set-up: dose 15 mg/kg, route intravenous; details: in vivo
Mus musculus [10] = experiment: Toxicity in human HT-29 cells xenografted mouse assessed as body weight level at 15 mg/kg, iv dosed three times per week to the end of treatment measured on day 17 (reference value: 22 +/- 1.7 g); format: organism-based; set-up: dose 15 mg/kg, route intravenous; details: in vivo
Mus musculus [11] = experiment: Toxicity in human HT-29 cells xenografted mouse assessed as body weight level at 15 mg/kg, iv dosed three times per week to the end of treatment measured on day 10 (reference value: 22.4 +/- 1.3 g); format: organism-based; set-up: dose 15 mg/kg, route intravenous; details: in vivo
Mus musculus [12] = experiment: Toxicity in human HT-29 cells xenografted mouse assessed as body weight level at 15 mg/kg, iv dosed three times per week to the end of treatment measured on day 3 (reference value: 20.7 +/- 1.2 g); format: organism-based; set-up: dose 15 mg/kg, route intravenous; details: in vivo
Mus musculus [13] = experiment: Toxicity in human HT-29 cells xenografted mouse assessed as body weight level at 15 mg/kg, iv dosed three times per week to the end of treatment measured on day 7 (reference value: 21.7 +/- 1 g); format: organism-based; set-up: dose 15 mg/kg, route intravenous; details: in vivo
HT-29 [14] = experiment: Antitumor activity against human HT-29 cells xenografted in mouse assessed as relative tumor increment rate at 15 mg/kg, iv dosed three times per week to the end of treatment relative to untreated control; format: functional
HCT-116 = experiment: Potency index, ratio of IC50 for SN38 to IC50 for compound against human HCT116 cells after 72 hrs by sulforhodamine B assay; format: functional
[15] = Stability in human plasma assessed as lactone moieties level at 1 uM incubated at 37 degC after 3 hrs by HPLC method; format: ADME, cell-free; details: read-out: Stability

| SMILES | inhibition [2] | inhibition [4] | IC50 ([1]; Homo sapiens, HCT-116, 72 h) [nM] | IC50 (HT-29 [3]; Homo sapiens, HT-29, 72 h) [nM] | further results |
| --- | --- | --- | --- | --- | --- |
| CC[C@]1(O)c2cc3n(c(=O)c2COC(=O)[C@H]1OC)Cc1cc2ccccc2nc1-3 | Active | Active | 1.72 | 4.79 |  |
| CC[C@]1(O)c2cc3n(c(=O)c2COC(=O)[C@H]1OC)Cc1c-3nc2cc3c(cc2c1-c1ccncc1)OCO3 [listing 1 of 2 here] |  | Active |  |  | inhibition [5]: Active; inhibition [6]: Active |
| CCc1c2c(nc3ccc(OC(=O)N4CCC(N5CCCCC5)CC4)cc13)-c1cc3c(c(=O)n1C2)COC(=O)[C@]3(O)CC [IRINOTECAN] |  |  |  |  | Activity (Mus musculus [7]): 21.3 g; Activity (Mus musculus [8]): 22.4 g; Activity (Mus musculus [9]): Non-toxic; Activity (Mus musculus [10]): 22.3 g; Activity (Mus musculus [11]): 21.6 g; Activity (Mus musculus [12]): 19.9 g; Activity (Mus musculus [13]): 20.8 g; T/C (HT-29 [14]): 42.22% |
| CC[C@]1(O)c2cc3n(c(=O)c2COC(=O)[C@H]1OC)Cc1c-3nc2cc3c(cc2c1-c1ccncc1)OCO3 [listing 2 of 2 here] |  |  |  |  | Ratio IC50 (HCT-116): 20; IC50 ([1]; hct-116): 0.215 nM; IC50 (HT-29 [3]; ht-29): 1.27 nM |
| CC[C@]1(O)c2cc3n(c(=O)c2COC(=O)[C@H]1OC)Cc1c-3nc2ccc(OC)cc2c1-c1ccncc1 | Active | Active | 3.33 | 6.76 |  |
| CC[C@]1(O)c2cc3n(c(=O)c2COC(=O)[C@H]1OC)Cc1c-3nc2ccccc2c1C1CCN(C)CC1 | Active | Active | 3.23 | 17.2 |  |
| CC[C@]1(O)c2cc3n(c(=O)c2COC(=O)[C@H]1OC)Cc1cc2cc(O)ccc2nc1-3 | Active | Active | 4.46 | 26.7 |  |
| CC[C@]1(O)c2cc3n(c(=O)c2COC(=O)[C@H]1OC(C)=O)Cc1c-3nc2ccccc2c1-c1ccncc1 |  | inactive | 2.95 | 11.4 |  |
| CC[C@]1(O)c2cc3n(c(=O)c2COC(=O)[C@H]1OC)Cc1c-3nc2ccccc2c1-c1ccncc1 | Active | Active | 2.12 | 7.18 |  |
| CCc1c2c(nc3ccc(O)cc13)-c1cc3c(c(=O)n1C2)COC(=O)[C@]3(O)CC [7-ETHYL-10-HYDROXYCAMPTOTHECIN] |  |  | 4.28 | 18.5 | remaining at 3 h, 1 µM [15]: 20% |

More lines, main results first:

| inhibition [2] | inhibition [4] | SMILES | IC50 ([1]; Homo sapiens, HCT-116, 72 h) [nM] | IC50 (HT-29 [3]; Homo sapiens, HT-29, 72 h) [nM] | further results |
| --- | --- | --- | --- | --- | --- |
| Active | Active | CC[C@]1(O)c2cc3n(c(=O)c2COC(=O)[C@H]1OC(C)=O)Cc1c-3nc2ccc(OC)cc2c1C1CCN(C)CC1 | 13.2 | 54.7 |  |
| Active | Active | CC[C@]1(O)c2cc3n(c(=O)c2COC(=O)[C@H]1OC)Cc1c-3nc2ccccc2c1-c1cn(C)cn1 | 1.26 | 4.11 |  |
| Active | Active | CC[C@]1(O)c2cc3n(c(=O)c2COC(=O)[C@H]1OC(C)=O)Cc1c-3nc2ccc(OC)cc2c1-c1ccncc1 | 7.99 | 31 |  |
| Active | Active | CC[C@]1(O)c2cc3n(c(=O)c2COC(=O)[C@H]1OC)Cc1c-3nc2ccc(OC)cc2c1C1CCN(C)CC1 | 8.23 | 27.1 |  |
| Active | Active | CC[C@]1(O)c2cc3n(c(=O)c2COC(=O)[C@H]1OC)Cc1cc2cc4c(cc2nc1-3)OCO4 | 0.2 | 0.3 | inhibition [5]: Active; inhibition [6]: Active |
| Active | Active | CC[C@]1(O)c2cc3n(c(=O)c2COC(=O)[C@H]1OC(C)=O)Cc1c-3nc2ccccc2c1C1CCN(C)CC1 | 9.74 | 63.8 |  |
| Active | Active | CC[C@]1(O)c2cc3n(c(=O)c2COC(=O)[C@H]1OC(C)=O)Cc1c-3nc2ccccc2c1-c1cn(C)cn1 | 1.47 | 9.11 |  |
